Laboratory results published in patent US20260091082A1, “CYCLIC PEPTIDE DERIVATIVE COMPOSITION FOR TREATING OR PREVENTING EYE DISEASE” (DKS Co. Ltd., priority 2022, published 2026).
Where “and” joins values, the source holds several entries; their conditions need not be identical. Equal entries are not always repeated.

Experiments:
[1] = General condition observation (clinical signs) in anterior chamber aqueous humor pressure load rat model; assay type: in vivo, Rat; Slc: SD; set-up: key: —: No anormal sign; details: 10 mg/mL intravenous, once about 30 minutes before ischemic load, animals 401-410 (test group 4), per animal
Description: (§1) • Species and strains: Rat; Slc: SD • Number of animals on arrival and sex: 50 males • Age in weeks at arrival: 6 weeks old • Body weight range at arrival: 147.2 to 170.0 g • Source: Japan SLC, Inc.
The body weight of the animals was measured at a frequency of once a week or more, and the general condition observation was performed every day.
(§2) • Administration route: Eyedrop administration, intravenous administration • Administration method (eyedrop): Eyedrop administration was performed on a treated eye (right eye) of a rat using a micropipette 4 times a day (at intervals of 1.5 hours or more). • Administration method (intravenous): The amount of administration solution, calculated from the body weight on the day of administration, was administered from the tail vein using a syringe and an injection needle about 30 minutes before ischemic load. • Time of administration: Administration was performed according to the following schedule.

[2] = test system: anterior chamber aqueous humor pressure load rat model; experiment: Retinal thickness (IPL, INL, ONL) in retinal damage model induced by anterior chamber aqueous humor pressure load; assay type: in vivo, Rat; Slc: SD; details: 10 mg/mL intravenous, right eye
Description: • Name: Compound 9 • Source: Synthesized in the above Examples • Used amount: 0.4 mL (50 mg/mL solution) • Storage conditions: Freezing, light shielding
Method for preparing test substance (1 mg/mL): A high concentration solution prepared at 50 mg/mL was diluted 50 times with a medium to prepare a 1 mg/mL administration solution.
• Name: MK-801 • Distributor: SIGMA-ALDRICH • Use amount: 0.0501 g • Storage condition: refrigerated (2° C. to 8° C.)
Method for preparing positive control substance (10 mg/mL): 0.0501 g was weighed out and made up to a total volume of 5 mL with a control substance (physiological saline).
as §1
Grouping was performed two days before the first creation of the retinal damage model induced by an anterior chamber aqueous humor pressure load. Using the daily body weight as an index, stratified random allocation was performed using SAS (Ver. 9.3, SAS Institute Japan Ltd.) and EXSUS (Ver. 8.0, CAC Croit Corporation) so that an average value of the body weights of each group was approximately uniform.
as §2
1. 10 mg/kg xylazine hydrochloride was intramuscularly administered on the model creation day (day 0). A rat was placed in an anesthesia box and subjected to general anesthesia with isoflurane (5%, oxygen:nitrous oxide=1:3). When anesthesia was effective, the rat was taken out of the anesthesia box, an inhalation anesthetic mask was worn, and anesthesia was maintained with isoflurane (1% to 5%, oxygen nitrous oxide=1:3).
2. The body temperature was maintained at 37° C. with a warming mat, and a mydrin P ophthalmic solution was instilled in the right eye (treated eye) of the rat to dilate the pupil, then the cravit ophthalmic solution 1.5% (Santen Pharmaceutical Co., Ltd.) was instilled.
3. A bottle of an IV bag containing physiological saline was previously suspended so that a water surface was 155 cm (100 mmHg or more) higher than the eye of the rat. The IV bag was connected to a pediatric infusion set (Terumo Corporation), a 27 G injection needle thereof was inserted into and fixed to the anterior chamber while slightly dripping the liquid from a needle tip. The model was created in the light phase (6:00 to 18:00) in consideration of the diurnal variation of the intraocular pressure.
4. After the needle was inserted into the anterior chamber, pressure (100 mmHg or more) was loaded and maintained in the anterior chamber by associating the reflux system.
5. After an ischemic load for 45 minutes, the injection needle and the like were removed, the inhalation anesthetic mask was removed, and the rat was sufficiently woken up under a warming mat, and then returned to the cage.
6. For 2 days after surgery, 10 mg/kg xylazine hydrochloride was intramuscularly administered as an analgesic for the purpose of alleviating the pain after the treatment.
1. Fourteen days after model creation, general anesthesia was performed with isoflurane (5%, oxygen:nitrous oxide=1:3), euthanasia was then performed by exsanguination, a suture was placed as a marker at the 12 o'clock position of the ocular conjunctiva, and eyeball enucleation was performed.
2. […]

[3] = 300 μm from optic disk, individual measurements per animal
[4] = 300 μm from optic disk, mean per animal

C[C@]12N[C@H](Cc3ccccc31)c1ccccc12 [MK-801, reference compound]
Clinical signs ([1]; Day 0): — | Clinical signs ([1]; Day 1): — | Clinical signs ([1]; Day 2): — | Clinical signs ([1]; Day 3): — | Clinical signs ([1]; Day 4): — | Clinical signs ([1]; Day 5): — | Clinical signs ([1]; Day 6): — | Clinical signs ([1]; Day 7): — | Clinical signs ([1]; Day 8): — | Clinical signs ([1]; Day 9): — | Clinical signs ([1]; Day 10): — | Clinical signs ([1]; Day 11): — | Clinical signs ([1]; Day 12): — | Clinical signs ([1]; Day 13): — | Clinical signs ([1]; Day 14 (day of necropsy)): — | Clinical signs ([1]; Day −1): — | Clinical signs ([1]; Day −2): — | Thickness of INL (μm), Distance from Optic Disk 300 μm [2, 3]: 43.354 μm and 38.856 μm and 38.516 μm and 27.422 μm (2×) and 28.629 μm and 30.645 μm and 26.920 μm and 25.120 μm and 24.650 μm and 35.504 μm and 33.881 μm and 32.856 μm and 27.965 μm and 24.925 μm and 25.788 μm and 20.485 μm and 25.262 μm and 25.607 μm and 23.821 μm and 27.016 μm and 25.835 μm and 27.670 μm and 26.395 μm and 24.758 μm and 25.159 μm and 24.873 μm and 35.703 μm and 32.278 μm and 31.627 μm | Thickness of IPL (μm), Distance from Optic Disk 300 μm [2, 3]: 47.608 μm and 50.434 μm and 48.521 μm and 38.326 μm and 39.132 μm and 40.728 μm and 36.614 μm and 38.136 μm and 36.780 μm and 37.923 μm and 37.097 μm and 36.446 μm and 38.879 μm and 37.066 μm and 37.189 μm and 34.034 μm and 34.084 μm and 33.182 μm and 34.736 μm and 31.462 μm and 32.671 μm and 35.348 μm and 37.744 μm and 37.108 μm and 43.612 μm and 37.515 μm and 38.865 μm and 37.237 μm and 35.429 μm and 37.489 μm | Thickness of INL (μm), Distance from Optic Disk 300 μm, Mean [2, 4]: 40.242 μm and 28.899 μm and 25.563 μm and 34.080 μm and 26.226 μm and 23.785 μm and 25.557 μm and 27.162 μm and 24.930 μm and 33.203 μm | Thickness of IPL (μm), Distance from Optic Disk 300 μm, Mean [2, 4]: 48.854 μm and 39.395 μm and 37.177 μm and 37.155 μm and 37.711 μm and 33.767 μm and 32.956 μm and 36.733 μm and 39.997 μm and 36.718 μm | Thickness of INL (μm), Distance from Optic Disk 600 μm ([2]; 600 μm from optic disk, individual measurements per animal): 38.743 μm and 36.612 μm and 29.504 μm and 25.885 μm and 27.808 μm and 31.247 μm and 41.632 μm and 47.024 μm and 32.661 μm and 30.741 μm and 27.960 μm and 28.852 μm and 19.795 μm and 16.209 μm and 32.381 μm and 32.162 μm and 24.755 μm and 25.923 μm (2×) and 32.268 μm and 39.011 μm and 36.780 μm and 28.629 μm and 32.351 μm and 44.795 μm and 30.775 μm and 27.268 μm and 20.418 μm and 31.364 μm and 35.532 μm
